The values that follow come from ChEMBL document CHEMBL3425398, “(Dis)similar Analogues of Riboswitch Metabolites as Antibacterial Lead Compounds” (J Med Chem, 2015).

Test [1] is described as follows: Binding affinity to guanine riboswitch in Bacillus subtilis.
Test [2] can be described thus: Binding affinity to lysC riboswitch in Bacillus subtilis.
In test [3] the test system is Bacillus subtilis. Put plainly: Antibacterial activity against Bacillus subtilis in chemical defined medium. The test is classed as functional.
The test system of test [4] is Staphylococcus aureus. Put plainly: Antibacterial activity against Staphylococcus aureus in rich cation-adjusted Muller-Hinton broth. It is filed as functional.
Test [5] relates to Staphylococcus aureus. Put plainly: Antibacterial activity against Staphylococcus aureus in rich cation-adjusted Muller-Hinton broth in presence of 1.5 mM DTT. It is filed as functional.
Test [6] is described as follows: Activation of glmS riboswitch in Bacillus subtilis.
A short description of test [7]: Activation of glmS riboswitch in Staphylococcus aureus.
Test [8] in a line: Binding affinity to TPP riboswitch in Bacillus subtilis.
The nature of test [9]: Binding affinity to TPP riboswitch in Escherichia coli.
The nature of test [10]: Binding affinity to thiM riboswitch in Escherichia coli.
Test [11] in a line: Binding affinity to thiC riboswitch in Escherichia coli.

≈ marks a conversion by molar mass, not a printed value.

In the case of `CC(=O)Nc1nc(=O)c2[nH]cnc2[nH]1`, in [1], the Kd (in general, the free concentration of one partner at which half of the binding sites on the other are occupied at equilibrium, for simple one-to-one binding) is 0.5 nM.

In [2], `NCCOC[C@H](N)C(=O)O` showed a Kd of 13 µM. It took 26 µM (≈ 3.85 µg/mL) to inhibit growth in [3] (MIC).

As for `Nc1nc(N)c(N)c(=O)[nH]1`, the dissociation constant Kd in test [1] was 100 nM. For the same compound, the minimal inhibitory concentration (MIC) (in general, the lowest concentration that inhibits growth of the organism) is 4 mM (≈ 565 µg/mL) in [4] and 14 µM in [5].

For the compound `N[C@H]1C(O)O[C@H](COP(=O)(O)O)[C@@H](O)[C@@H]1O` (stereo partly specified), a half-maximal effect in test [6] (EC50) was put at 200 µM.

On to `N[C@@H]1[C@@H](O)[C@H](O)[C@@H](COP(=O)(O)O)C[C@@H]1O`, for which, in test [7], the EC50 (as a rule, the midpoint of the concentration-response curve) was found to be 6.2 µM.

With `Cc1ncc(C[n+]2cccc(CCOP(=O)([O-])OP(=O)(O)O)c2C)c(N)n1`, in test [8], the Kd was 160 nM. This counts as sub-micromolar.

As to `Cc1ncc(Cn2cc(CCOP(=O)(O)OP(=O)(O)O)nn2)c(N)n1`, the Kd in test [9] worked out at 370 nM.

`Cc1ncc(Cn2nnc(CCOP(=O)(O)CP(=O)(O)O)c2C)c(N)n1`: the affinity in [9], expressed as Kd, was 9 nM.

`Nc1nc2[nH]cnc2/c(=N\O)[nH]1` registered a dissociation constant Kd in test [1] of 20 nM. That is a double-digit nanomolar value.

In turn, `NCCSC[C@H](N)C(=O)O` came in with a dissociation constant Kd in test [2] of 30 µM. This compound also had a minimum inhibitory concentration (MIC) in test [3] of 26 µM (≈ 4.27 µg/mL).

In [2], `N=C(N)NCCCC[C@H](N)C(=O)O` returned a Kd of 7 µM. This lies in the single-digit micromolar range.

`NC/C=C/CC(N)C(=O)O` (racemic) showed an equilibrium dissociation constant (Kd) in test [2] of 0.97 µM. Compared with the last compound, the Kd is about 7.2-fold lower.

`Nc1nc2[nH]cnc2c(=O)[nH]1` [GUANINE] yielded a Kd in test [1] of 5 nM. This lies in the single-digit nanomolar range.

Take `NCCCC[C@H](N)C(=O)O` [LYSINE]: in test [2], the affinity, expressed as Kd, was 0.36 µM.

For the compound `Cc1ncc(C[n+]2csc(CCOP(=O)([O-])OP(=O)(O)O)c2C)c(N)n1` [THIAMIN DIPHOSPHATE], the dissociation constant Kd in [8] is 50 nM; in [10], 600 nM; in test [11], 100 nM.
